Experimental data taken from patent US4912107A, “Pyrrolocarbazole derivatives, compositions containing them, and methods for using them” (Goedecke Aktiengesellschaft, priority 1988, dated 1990).

Target: protein kinase C
Assay: enzyme assay of protein kinase C activated with phosphatidylserine and diacylglycerol
Type: biochemical
Conditions: protein kinase C activated with phosphatidylserine and iacylglycerol; according to EP-OS 0 255 126; read-out: concentration giving 50% inhibition of protein kinase C
Method: Compounds of the present invention are potent inhibitors of protein kinases, such as protein kinase C. […] The experiment was carried out according to EP-OS 0 255 126 (inhibition of protein kinase C).

For CCn1c2ccccc2c2c3c(c(-c4ccccc4Cl)cc21)C(=O)NC3=O [Example 2a, 4-(2-Chlorophenyl)-6-ethyl-1,2,3,6-tetrahydro-1,3-dioxopyrrolo[3,4-c]carbazole], the IC50 was 580 nM.
